According to US20220142959A1, “LEUCINE, ACETYL LEUCINE, AND RELATED ANALOGS FOR TREATING DISEASE” (priority 2019, published 2022):

Tests used:
[1] = CCI induced TBI mice: food intake and body weight; assay type: in vivo; details: data not shown
Experimental: (§1) Controlled cortical impact (CCI) induced TBI was performed in male C57BL6/J mice (20-25 g). Briefly, after a 10-mm midline incision was made over the skull, the skin and fascia were retracted, and a 4-mm craniotomy was made on the central aspect of the left parietal bone of mice under surgical anesthesia (2-3% isoflurane evaporated in a gas mixture containing 70% N20 and 30% 02). Moderate injury was induced in the exposed brain by a custom microprocessor-controlled and compressed air driven pneumatic impactor of 3.5 mm diameter tip with the impact velocity of 6 m/s and a deformation depth of 2 mm.
(§2) N-Acetyl-L-Leucine (“NAL” or “NALL”) was dissolved in ethanol to prepare a 50 mg/ml solution which was then diluted in water to give a 10 mg/ml solution. About 0.25 ml of the NAL solution (10 mg/ml) was orally administered in mice at a […] (2.5 mg NAL/25 g mouse) via oral gavage each day after CCI induced TBI for 4 days. Mice were also fed with NAL at 0.5 mg/kg chow powder chow mixed with diet gel for up to 7 days after injury.

TUNEL positive cells = assay: TUNEL assay on brain sections after CCI induced TBI; assay type: in vivo; details: injured mice fed with NALL vs vehicle fed TBI mice
Experimental: as §1, §2
The level of α-fodrin cleavage products in NALL treated, vehicle treated sham, and TBI mouse cortices were determined by Western blot analysis and using the TUNEL assay to assess whether NALL treatment decreases cortical cell death after TBI. […]

[2] = system: M1-type and M2-type inflammatory markers (mRNA); assay: Real time rt-PCR of inflammatory markers in TBI mouse cortex; assay type: in vivo, mice; details: for expression of inflammatory markers / pro-inflammatory mediators (overall): CCI induced TBI in mice
Experimental: as §1, §2
The expression level of M1-type pro-inflammatory markers Nos2, Nlrp3, IL-1β, TNF, IFNβ and Nox2 in the perilesional area in TBI mouse cortices were determined by real time rt-PCR. The expression level of M2-type markers Socs3, YM-1, IL4ra and Arg-1 in cortical tissue was also determined.
Total RNA isolated from the ipsilateral cortex using miRNeasy Mini Kit (Qiagen, Cat No. 217004) was converted into cDNA using High Capacity RNA to cDNA kit (Applied Biosystem, Cat. No. 4387406) as per manufacturer's instruction. cDNA TaqMan® Universal Master Mix II (Applied Biosystems, Cat. No. 4440040) was used to perform quantitative real-time PCR amplification as described previously using 20× TaqMan® Gene Expression Assay (Applied Biosystems) for following mouse genes were used: Gapdh (Mm99999915_g1), NLRP3 (Mm00840904_m1), NOX2 (Mm01287743_m1), iNOS (Mm00440502_m1), TNFα (Mm00443258_m1), IFnβ1 (Mm00439552_s1), IL-10 (Mm01288386_m1), IL1b (Mm00434228_m1), Arg1 (Mm00475988_m1), SOCS3 (Mm00545913_s1), YM-1 (Mm00657889_mH) and IL-4ra (Mm01275139_m1) (Applied Biosystems). Reactions were amplified and quantified using a 7900HT Fast Real-Time PCR System and corresponding software (Applied Biosystems). Relative gene expression normalized to Gapdh was calculated based on the comparative Ct method.

[3] = system: rat primary cortical neurons (NE and NG cultures); assay: Truncated tau and neuronal markers in neuron-enriched and neuron-glia cultures; assay type: cell-based
Experimental: FIG. 20 is eight Western blots of tau (5E2), synaptophysin and βIII-tubulin in rat primary cortical neurons (neuron-enriched (NE) and neuron-glia (NG) cultures) in the absence and presence of ADLL, ALL, ADL, DLL, LL, DL, and LLE (1 mM, 5 days).
The efficacy of ADLL, ALL, ADL, DLL, LL, DL, and LLE in reducing truncated tau levels in neuron-glia (NG) cultures was investigated. The results of this study are provided in FIGS. 20-24 One aim of this study was to determine whether ADLL, ALL, ADL, DLL, LL, DL, and LLE conferred intrinsic neuroprotection by sustaining neuronal function under conditions of cellular overgrowth, or whether they acted indirectly through the non-autonomous modulation of glial cells. Irrespective of whether the compounds acted directly or indirectly on neurons, preventing the generation of truncated tau confers beneficial effects to neuronal integrity.
Cultures were treated for five days (DIV 9-14) with 1 mM of ADLL, ALL, ADL, DLL, LL, DL, or LLE, and were subsequently assessed for a number of neuron-specific markers that could provide a readout on neuronal health: βIII-tubulin, full-length tau, truncated tau (antibody 5E2) and synaptophysin. ADLL, ALL, ADL, DLL, LL, DL, and LLE were well-tolerated in NE and NG cultures, as evidenced by consistently equal levels of synaptophysin and βIII-tubulin detected across untreated (control) and drug-treated samples (FIGS. 20, 23, and 24). None of ADLL, ALL, ADL, DLL, LL, DL, and LLE reduced basal levels of truncated tau in NG cultures at DIV14 (FIG. 20 and FIG. 22).

[4] = NAL fed mouse cortices as compared to sham mice
[5] = cortices of NAL fed vs vehicle fed TBI mice

Q: What does the source list for `CC(=O)N[C@@H](CC(C)C)C(=O)O` [ALL, acetyl-L-leucine]?
A: change in body weight ([1]; NALL treated TBI mice): no appreciable change; food intake ([1]; sham vs TBI mice fed with NALL): No significant difference; TUNEL positive cells in brain sections (TUNEL positive cells): Lower levels; expression of inflammatory markers / pro-inflammatory mediators (overall) [2]: modulates the expression of pro-inflammatory mediators; expression of inflammatory markers / pro-inflammatory mediators (overall) ([2]; listed as NAL): reduces expression of several inflammatory markers; levels of IL-4ra [2, 4]: remained unaltered; levels of Socs3 [2, 4]: remained unaltered; levels of YM-1 [2, 4]: remained unaltered; mRNA level of IFNβ [2, 5]: decrease; mRNA level of Nox2 [2, 5]: decrease; levels of Arg-1 ([2]; injured mouse cortex, NAL vs vehicle fed TBI mice): lowered; tolerability (levels of synaptophysin and βIII-tubulin vs untreated control) ([3]; NE and NG cultures, 1 mM, five days (DIV 9-14)): well-tolerated; reduction of basal levels of truncated tau ([3]; NG cultures at DIV14, 1 mM, five days): None
